# Measurements published in patent US20060069132A1, “Azolecarboxamide herbicides” (priority 2004, published 2006).
# How the values were obtained:
# [1] = test system: pitted morningglory; assay: Test E pre-/postemergence herbicide test; type: in vivo, Ipomoea lacunosa
# How it was run: (§1)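 Test chemicals in a non-phytotoxic solvent mixture with surfactant applied preemergence to planted seeds and postemergence to plants 2 to 18 cm tall (1- to 4-leaf stage). After 12 to 14 days in the greenhouse, injury rated visually against untreated controls on a 0–100 scale (0 no effect, 100 complete control).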
# [2] = test system: mustard; assay: Test E pre-/postemergence herbicide test; type: in vivo, Brassica nigra
# How it was run: as §1
# [3] = test system: common mallow; assay: Test E pre-/postemergence herbicide test; type: in vivo, Malva sylvestris
# How it was run: as §1
# [4] = test system: purple nutsedge; assay: Test E pre-/postemergence herbicide test; type: in vivo, Cyperus rotundus
# How it was run: as §1
# [5] = test system: tropical spiderwort; assay: Test E pre-/postemergence herbicide test; type: in vivo, Commelina benghalensis
# How it was run: as §1
# [6] = test system: johnsongrass; assay: Test E pre-/postemergence herbicide test; type: in vivo, Sorghum halepense
# How it was run: as §1
# [7] = test system: goosegrass; assay: Test E pre-/postemergence herbicide test; type: in vivo, Eleusine indica
# How it was run: as §1
# [8] = test system: downy bromegrass; assay: Test E pre-/postemergence herbicide test; type: in vivo, Bromus tectorum
# How it was run: as §1
# [9] = test system: annual bluegrass; assay: Test E pre-/postemergence herbicide test; type: in vivo, Poa annua
# How it was run: as §1
# [10] = test system: Russian thistle; assay: Test E pre-/postemergence herbicide test; type: in vivo, Salsola kali
# How it was run: as §1
# [11] = test system: Italian ryegrass; assay: Test C postemergence herbicide test; type: in vivo, Lolium multiflorum
# How it was run: (§2)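 After a postemergence application at 1 to 4 leaves (plants 2–18 cm high), or at 2 leaves for barnyardgrass in flooded paddy, plants stayed in the greenhouse for 12 to 14 days. Damage was then judged visually relative to control plants, with 100 indicating complete control.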
# [12] = test system: wheat; assay: Test C postemergence herbicide test; type: in vivo, Triticum aestivum
# How it was run: as §2
# [13] = test system: downy bromegrass; assay: Test C postemergence herbicide test; type: in vivo, Bromus tectorum
# How it was run: as §2
# [14] = test system: canarygrass; assay: Test C postemergence herbicide test; type: in vivo, Phalaris minor
# How it was run: as §2
# [15] = Postemergence, 500 g ai/ha, scale 0 to 100
# [16] = Postemergence, 250 g ai/ha, scale 0 to 100
# [17] = Preemergence, 62 g ai/ha, scale 0 to 100
# [18] = Preemergence, 125 g ai/ha, scale 0 to 100
# [19] = Preemergence, 250 g ai/ha, scale 0 (no effect) to 100 (complete control)
# [20] = postemergence, 125 g ai/ha, scale 0 to 100
# [21] = postemergence, 62 g ai/ha, scale 0 to 100
# [22] = Preemergence, 500 g ai/ha, scale 0 (no effect) to 100 (complete control)
# [23] = Postemergence, 500 g ai/ha, scale 0 to 100, 0 no effect, 100 complete control
# [24] = Postemergence, 250 g ai/ha, scale 0 to 100, 0 no effect, 100 complete control
structure (smiles),measurement,setting,value
CCn1nc(C2(C)CC2)cc1C(=O)Nc1cc(C(=O)N(C)C)ccc1F [Compound 299],"Plant response rating, Morningglory",[1]; [15],60
same,"Plant response rating, Morningglory",[1]; [16],40
same,"Plant response rating, Morningglory",[1]; [17],10
same,"Plant response rating, Morningglory",[1]; [18],75
same,"Plant response rating, Morningglory",[1]; [19],90
same,"Plant response rating, Morningglory",[1]; [20],20
same,"Plant response rating, Morningglory",[1]; [21],10
same,"Plant response rating, Black Mustard",[2]; [15],100
same,"Plant response rating, Black Mustard",[2]; [16],100
same,"Plant response rating, Black Mustard",[2]; [17],100
same,"Plant response rating, Black Mustard",[2]; [18],100
same,"Plant response rating, Black Mustard",[2]; [19],100
same,"Plant response rating, Black Mustard",[2]; [22],95
same,"Plant response rating, Black Mustard",[2]; [20],100
same,"Plant response rating, Black Mustard",[2]; [21],100
same,"Plant response rating, Mallow",[3]; [15],100
same,"Plant response rating, Mallow",[3]; [16],50
same,"Plant response rating, Mallow",[3]; [17],50
same,"Plant response rating, Mallow",[3]; [18],75
same,"Plant response rating, Mallow",[3]; [19],95
same,"Plant response rating, Mallow",[3]; [22],100
same,"Plant response rating, Mallow",[3]; [20],30
same,"Plant response rating, Mallow",[3]; [21],10
same,"Plant response rating, Nutsedge, Purple",[4]; [15],85
same,"Plant response rating, Nutsedge, Purple",[4]; [16],80
same,"Plant response rating, Nutsedge, Purple",[4]; [17],50
same,"Plant response rating, Nutsedge, Purple",[4]; [19],80
same,"Plant response rating, Nutsedge, Purple",[4]; [20],75
same,"Plant response rating, Nutsedge, Purple",[4]; [21],40
same,"Plant response rating, Spiderwort",[5]; [15],90
same,"Plant response rating, Spiderwort",[5]; [16],80
same,"Plant response rating, Spiderwort",[5]; [18],85
same,"Plant response rating, Spiderwort",[5]; [19],95
same,"Plant response rating, Spiderwort",[5]; [22],100
same,"Plant response rating, Spiderwort",[5]; [20],80
same,"Plant response rating, Spiderwort",[5]; [21],10
same,"Plant response rating, Johnsongrass",[6]; [15],85
same,"Plant response rating, Johnsongrass",[6]; [16],85
same,"Plant response rating, Johnsongrass",[6]; [17],40
same,"Plant response rating, Johnsongrass",[6]; [18],60
same,"Plant response rating, Johnsongrass",[6]; [19],80
same,"Plant response rating, Johnsongrass",[6]; [22],100
same,"Plant response rating, Johnsongrass",[6]; [20],80
same,"Plant response rating, Johnsongrass",[6]; [21],60
same,"Plant response rating, Goosegrass",[7]; [15],85
same,"Plant response rating, Goosegrass",[7]; [16],80
same,"Plant response rating, Goosegrass",[7]; [17],100
same,"Plant response rating, Goosegrass",[7]; [18],100
same,"Plant response rating, Goosegrass",[7]; [19],100
same,"Plant response rating, Goosegrass",[7]; [22],100
same,"Plant response rating, Goosegrass",[7]; [20],80
same,"Plant response rating, Goosegrass",[7]; [21],60
same,"Plant response rating, Bromegrass, Downy",[8]; [15],95
same,"Plant response rating, Bromegrass, Downy",[8]; [16],80
same,"Plant response rating, Bromegrass, Downy",[8]; [19],100
same,"Plant response rating, Bromegrass, Downy",[8]; [22],100
same,"Plant response rating, Bromegrass, Downy",[8]; [20],70
same,"Plant response rating, Bromegrass, Downy",[8]; [21],50
same,"Plant response rating, Bluegrass",[9]; [15],100
same,"Plant response rating, Bluegrass",[9]; [16],80
same,"Plant response rating, Bluegrass",[9]; [17],85
same,"Plant response rating, Bluegrass",[9]; [18],95
same,"Plant response rating, Bluegrass",[9]; [19],95
same,"Plant response rating, Bluegrass",[9]; [22],100
same,"Plant response rating, Bluegrass",[9]; [20],70
same,"Plant response rating, Bluegrass",[9]; [21],60
same,"Plant response rating, Thistle",[10]; [15],90
same,"Plant response rating, Thistle",[10]; [16],70
same,"Plant response rating, Thistle",[10]; [18],100
CCNC(=O)c1cccc(NC(=O)c2nn(C(C)(C)C)nc2C)c1 [Compound 392],"Plant response rating, Morningglory",[1]; [17],10
same,"Plant response rating, Morningglory",[1]; [18],40
same,"Plant response rating, Morningglory",[1]; [19],40
same,"Plant response rating, Morningglory",[1]; [22],75
same,"Plant response rating, Black Mustard",[2]; [17],60
same,"Plant response rating, Black Mustard",[2]; [19],85
same,"Plant response rating, Black Mustard",[2]; [22],100
same,"Plant response rating, Mallow",[3]; [17],10
same,"Plant response rating, Mallow",[3]; [18],80
same,"Plant response rating, Mallow",[3]; [19],95
same,"Plant response rating, Mallow",[3]; [22],95
same,"Plant response rating, Spiderwort",[5]; [18],50
same,"Plant response rating, Spiderwort",[5]; [19],95
same,"Plant response rating, Spiderwort",[5]; [22],100
same,"Plant response rating, Johnsongrass",[6]; [17],10
same,"Plant response rating, Johnsongrass",[6]; [18],30
same,"Plant response rating, Johnsongrass",[6]; [19],90
same,"Plant response rating, Johnsongrass",[6]; [22],95
same,"Plant response rating, Goosegrass",[7]; [17],20
same,"Plant response rating, Goosegrass",[7]; [18],70
same,"Plant response rating, Goosegrass",[7]; [19],85
same,"Plant response rating, Goosegrass",[7]; [22],95
same,"Plant response rating, Bromegrass, Downy",[8]; [17],10
same,"Plant response rating, Bromegrass, Downy",[8]; [18],20
same,"Plant response rating, Bromegrass, Downy",[8]; [19],30
same,"Plant response rating, Bromegrass, Downy",[8]; [22],30
same,"Plant response rating, Bluegrass",[9]; [17],10
same,"Plant response rating, Bluegrass",[9]; [18],80
same,"Plant response rating, Bluegrass",[9]; [19],80
same,"Plant response rating, Bluegrass",[9]; [22],100
same,"Plant response rating, Ryegrass, Italian",[11]; [23],65
same,"Plant response rating, Ryegrass, Italian",[11]; [20],50
same,"Plant response rating, Ryegrass, Italian",[11]; [21],35
same,"Plant response rating, Wheat",[12]; [23],35
same,"Plant response rating, Wheat",[12]; [20],30
same,"Plant response rating, Wheat",[12]; [21],20
same,"Plant response rating, Bromegrass, Downy",[13]; [24],55
same,"Plant response rating, Bromegrass, Downy",[13]; [23],60
same,"Plant response rating, Bromegrass, Downy",[13]; [20],55
same,"Plant response rating, Bromegrass, Downy",[13]; [21],35
same,"Plant response rating, Thistle",[10]; [18],10
same,"Plant response rating, Thistle",[10]; [22],100
same,"Plant response rating, Canarygrass",[14]; [24],50
same,"Plant response rating, Canarygrass",[14]; [23],65
same,"Plant response rating, Canarygrass",[14]; [20],45
same,"Plant response rating, Canarygrass",[14]; [21],40
CCc1nn(C(C)(C)C)nc1C(=O)Nc1cccc(C(=S)N(C)C)c1 [Compound 395],"Plant response rating, Morningglory",[1]; [17],20
same,"Plant response rating, Morningglory",[1]; [18],40
same,"Plant response rating, Morningglory",[1]; [19],75
same,"Plant response rating, Morningglory",[1]; [22],75
same,"Plant response rating, Black Mustard",[2]; [17],40
same,"Plant response rating, Black Mustard",[2]; [18],60
same,"Plant response rating, Black Mustard",[2]; [19],90
same,"Plant response rating, Black Mustard",[2]; [22],95
same,"Plant response rating, Mallow",[3]; [17],20
same,"Plant response rating, Mallow",[3]; [18],50
same,"Plant response rating, Mallow",[3]; [22],60
same,"Plant response rating, Nutsedge, Purple",[4]; [18],50
same,"Plant response rating, Nutsedge, Purple",[4]; [19],70
same,"Plant response rating, Nutsedge, Purple",[4]; [22],80
same,"Plant response rating, Spiderwort",[5]; [19],60
same,"Plant response rating, Spiderwort",[5]; [22],90
same,"Plant response rating, Johnsongrass",[6]; [17],30
same,"Plant response rating, Johnsongrass",[6]; [18],80
same,"Plant response rating, Johnsongrass",[6]; [19],90
same,"Plant response rating, Johnsongrass",[6]; [22],90
same,"Plant response rating, Goosegrass",[7]; [17],80
same,"Plant response rating, Goosegrass",[7]; [18],80
same,"Plant response rating, Goosegrass",[7]; [19],90
same,"Plant response rating, Goosegrass",[7]; [22],95
same,"Plant response rating, Bromegrass, Downy",[8]; [17],40
same,"Plant response rating, Bromegrass, Downy",[8]; [18],40
same,"Plant response rating, Bromegrass, Downy",[8]; [19],95
same,"Plant response rating, Bromegrass, Downy",[8]; [22],95
same,"Plant response rating, Bluegrass",[9]; [17],30
same,"Plant response rating, Bluegrass",[9]; [18],80
same,"Plant response rating, Bluegrass",[9]; [19],95
same,"Plant response rating, Bluegrass",[9]; [22],95
same,"Plant response rating, Thistle",[10]; [22],60
